In US20240067639A1, “SMALL MOLECULES THAT TARGET THE RNA THAT CAUSES ALS” (EXPANSION THERAPEUTICS, INC., priority 2020, published 2024) one finds Ki, IC25 and IC50 data, which are given here for 42 compounds.

Structures are written as SMILES.

For the first assay, the target named is biotinylated r(G4C2)8 RNA and hnRNP H1-His6. The assay is described as follows: TR-FRET hnRNP H binding assay. As to conditions: Table D. As for the experimental part:
TR-FRET hnRNP H Binding Assay. The TR-FRET assays were performed as previously described (Disney et al., 2012) except the final concentrations of biotinylated r(G4C2)8 (SEQ ID NO: 2) RNA and hnRNP H1-His6 were 80 nM and 75 nM, respectively. The RNA was folded by heating to 95° C. for 5 min in 1× Folding Buffer followed by slowly cooling to room temperature. The buffer was adjusted to 1×TR-FRET Assay Buffer followed by addition of compound. The mixture was incubated for 15 min at room temperature and then hnRNP H1-His6 was added. After an additional 15 min incubation, streptavidin-XL665 (HTRF, Cisbio Bioassays) and anti-His6-Tb (HTRF, Cisbio Bioassays) were added to a final concentration of 40 nM and 0.44 ng/μL, respectively. After incubating for 1 h, TR-FRET was measured as previously described. The IC50s were either calculated by fitting the equation (1) in Graphpad Prism.
In general terms: In TR-FRET formats the signal depends on donor and acceptor labels being close together.
Turning to `COc1ccc2c(c1)c1cc3cnccc3c(C)c1n2CCN(C)C` [Compound 20, 2-(9-methoxy-5-methyl-6H-pyrido[4,3-b]carbazol-6-yl)-N,N-dimethylethan-1-amine], the Ki (commonly a dissociation constant, usually derived from enzyme kinetics or from competition with a known ligand) was > 200 µM.

Take `COc1ccc2c(c1)c1cc3cnccc3c(C)c1n2C(C)C` [Compound 18, 6-isopropyl-9-methoxy-5-methyl-6H-pyrido[4,3-b]carbazole]: the inhibitory constant (Ki) is > 200 µM.

`Cc1c2ccncc2cc2c3cc(OCC(=O)NCCN(C)C)ccc3n(C)c12` [Example 59, 2-((5,6-dimethyl-6H-pyrido[4,3-b]carbazol-9-yl)oxy)-N-(2-(dimethylamino)ethyl)-acetamide] returned an inhibitory constant (Ki) of 1.3 µM. On the same count and under the same terms, the value for `COc1ccc2c(c1)c1cc3c(C(=O)O)nccc3c(C)c1n2C` [Compound 24, 9-methoxy-5,6-dimethyl-6H-pyrido[4,3-b]carbazole-1-carboxylic acid] was > 200 µM. For `COc1ccc2c(c1)c1cc3cnccc3c(C)c1n2Cc1ccncc1` [Compound 16, 9-methoxy-5-methyl-6-(pyridin-4-ylmethyl)-6H-pyrido[4,3-b]carbazole], the inhibitory constant (Ki) was > 200 µM.

With `COc1ccc2c(c1)c1cc3cnccc3c(C)c1n2Cc1ccccc1` [Compound 17, 6-benzyl-9-methoxy-5-methyl-6H-pyrido[4,3-b]carbazole], the Ki is > 200 µM. On the same count and under the same terms, the same measure for `COc1ccc2c(c1)c1cc3cnccc3c(C)c1n2C[C@@H](O)c1ccccc1` [Compound 19, (S)-2-(9-methoxy-5-methyl-6H-pyrido[4,3-b]carbazol-6-yl)-1-phenylethan-1-ol]: > 200 µM; for `COc1ccc2[nH]c3c(c2c1)C(=O)c1cnccc1C3=O` [Example 47, 9-methoxy-5H-pyrido[4,3-b]carbazole-5,11(6H)-dione]: > 200 µM. The same measure, in the same setting: the value for `COc1ccc2[nH]c3c(C)c4cnccc4cc3c2c1` [Example 49, 7-methoxy-11-methyl-10H-pyrido[3,4-b]carbazole] was > 200 µM.

In turn, `Cc1c2ccncc2cc2c3cc(OCC(=O)NCCCN(C)C)ccc3n(C)c12` [Example 58, 2-((5,6-dimethyl-6H-pyrido[4,3-b]carbazol-9-yl)oxy)-N-(3(dimethylamino)propyl)-acetamide] showed an inhibition constant Ki of 1 µM. The same measure, in the same setting: the same measure for `Cc1c2ccncc2cc2c3cc(OCC#N)ccc3n(C)c12` [Compound 13, 2-((5,6-dimethyl-6H-pyrido[4,3-b]carbazol-9-yl)oxy)acetonitrile]: > 200 µM. In the case of `Cc1c2ccncc2cc2c3ccc(OCCN4CCOCC4)cc3n(C)c12` [Example 53, 4-(2-((5,6-dimethyl-6H-pyrido[4,3-b]carbazol-8-yl)oxy)ethyl)morpholine], the Ki is > 200 µM.

Take `Cc1c2ccncc2cc2c3cc(OCCN4CCC(F)(F)CC4)ccc3n(C)c12` [Example 40, 9-(2-(4,4-difluoropiperidin-1-yl)ethoxy)-5,6-dimethyl-6H-pyrido[4,3-b]carbazole]: the Ki was > 200 µM.

As to `Cc1c2ccncc2cc2c3cc(OCC(=O)O)ccc3n(C)c12` [Compound 4b, 2-((5,6-dimethyl-6H-pyrido[4,3-b]carbazol-9-yl)oxy)acetic acid], the inhibitory constant (Ki) is > 200 µM. The same measure, in the same setting: the same measure for `Cc1c2ccncc2cc2c3cc(OCC(=N)N)ccc3n(C)c12` [Example 45, 2-((5,6-dimethyl-6H-pyrido[4,3-b]carbazol-9-yl)oxy)acetimidamide]: 21 µM; for `COc1cccc2c1c1cc3c(C(=O)N[C@H](C)CN(C)C)nccc3c(C)c1n2C` [Example 65, (R)—N-(1-(dimethylamino)propan-2-yl)-10-methoxy-5,6-dimethyl-6H-pyrido[4,3-b]carbazole-1-carboxamide]: 4.2 µM. The same measure, in the same setting: the value for `COc1ccc2c(c1)c1cc3cnccc3c(C)c1n2Cc1cnn(C)c1` [Compound 14, 9-methoxy-5-methyl-6-((1-methyl-1H-pyrazol-4-yl)methyl)-6H-pyrido[4,3-b]carbazol] was > 200 µM.

On to `Cc1c2ccncc2cc2c3cc(O)ccc3n(C)c12` [Compound 2, 5,6-dimethyl-6H-pyrido[4,3-b]carbazol-9-ol], for which the Ki is > 200 µM.

The assay is the same for the next values; noted with them: Table F.
In the case of `Cc1c2ccncc2cc2c3cc(C(=O)OCCN(C)C)ccc3n(C)c12` [Compound 239, 2-(dimethylamino)ethyl 5,6-dimethyl-6H-pyrido[4,3-b]carbazole-9-carboxylate], the Ki worked out at 24 µM. Same read-out and setting: the same measure for `Cc1c2ccncc2cc2c3cc(OCc4ncc[nH]4)ccc3n(C)c12` [Compound 251, 9-((1H-imidazol-2-yl)methoxy)-5,6-dimethyl-6H-pyrido[4,3-b]carbazole]: 19 µM; for `Cc1c2ccnc(C(C)C)c2cc2c3cc(C(=O)NCCN(C)C)ccc3n(C)c12` [Compound 238, N-(2-(dimethylamino)ethyl)-1-isopropyl-5,6-dimethyl-6H-pyrido[4,3-b]carbazole-9-carboxamide]: 20 µM. In turn, `Cc1c2ccnc(C(=O)N[C@H](C)CN(C)C)c2cc2c3c(OCCCN4CCN(C)CC4)cccc3n(C)c12` [Compound 241, (R)—N-(1-(dimethylamino)propan-2-yl)-5,6-dimethyl-10-(3-(4-methylpiperazin-1-yl)propoxy)-6H-pyrido[4,3-b]carbazole-1-carboxamide] had a Ki of 1.8 µM. The same measure, in the same setting: the value for `Cc1c2ccncc2cc2c1oc1ccc(OCC3=NCCN3)cc12` [Compound 233, 9-((4,5-dihydro-1H-imidazol-2-yl)methoxy)-5-methylbenzofuro[2,3-g]isoquinoline] was 7.5 µM. On the same count and under the same terms, the same measure for `CN(C)CCOc1ccc2c(c1)c1cc3ncccc3cc1n2C` [Compound 226, N,N-dimethyl-2-((6-methyl-6H-pyrido[3,2-b]carbazol-9-yl)oxy)ethanamine]: 13 µM.

For another assay, the system named is RAN translation of (G4C2)66-No ATG-GFP in HEK293T cells. The assay is described as follows: Cell-based assay of RAN translation inhibition (GFP/mCherry reporter). As to conditions: Homo sapiens, HEK-293T, 24 h, Table D; HEK293T, 24 h treatment; read-out: RANT IC25.
For the compound `Cc1c2ccncc2cc2c3cc(C(=O)NCCN)ccc3n(C)c12` [Example 74, N-(2-aminoethyl)-5,6-dimethyl-6H-pyrido[4,3-b]carbazole-9-carboxamide], the 25% effect concentration (IC25) (usually the concentration at which the effect reaches the 25% level) was > 5 µM. Still for that read-out and setting: the same measure for `COCCNC(=O)c1ccc2c(c1)c1cc3cnccc3c(C)c1n2C` [Example 79, N-(2-methoxyethyl)-5,6-dimethyl-6H-pyrido[4,3-b]carbazole-9-carboxamide]: 1.1 µM.

For `Cc1c2ccncc2cc2c3cc(C(=O)N4CCNCC4)ccc3n(C)c12` [Example 72, (5,6-dimethyl-6H-pyrido[4,3-b]carbazol-9-yl)(piperazin-1-yl)methanone], the IC25 was > 5 µM.

On to `Cc1c2ccncc2cc2c3cc(OCCN4CCCC4)ccc3n(C)c12` [Compound 7, 5,6-dimethyl-9-(2-(pyrrolidin-1-yl)ethoxy)-6H-pyrido[4,3-b]carbazole], for which the IC25 is > 5 µM.

The assay is the same for the next values; noted with them: Homo sapiens, HEK-293T, 24 h, read-out: RANT IC25.
With `Cc1c2ccncc2cc2c3cc(OCCN4CCC(O)CC4)ccc3n(C)c12` [Compound 228, 1-(2-((5,6-dimethyl-6H-pyrido[4,3-b]carbazol-9-yl)oxy)ethyl)piperidin-4-ol], the IC25 worked out at 1.3 µM.

The assay is the same for the next values; noted with them: Homo sapiens, HEK-293T, read-out: RANT IC50.
As for `Cc1c2ccncc2cc2c3cc(Oc4ccccn4)ccc3n(C)c12` [Compound 305, 5,6-dimethyl-9-(pyridin-2-yloxy)-6H-pyrido[4,3-b]carbazole], the concentration for half-maximal inhibition (IC50) (usually the concentration needed to halve the response being measured) is 18 µM.

The assay is the same for the next values; noted with them: Homo sapiens, HEK-293T; Table E; inhibition of RAN translation, HEK293T; read-out: IC50.
Turning to `COc1ccc2[nH]c3c(C)c4ccnc(C(=O)NCCN)c4cc3c2c1` [Compound 208], the IC50 came out at 2.2 µM. The same measure, in the same setting: the same measure for `CCOC(=O)c1nccc2c(C)c3[nH]c4ccc(OC)cc4c3cc12` [Compound 202, Ethyl-9-methoxy-5-methyl-6H-pyrido[4,3-b]carbazole-1-carboxylate]: 12 µM; for `CCOC(=O)c1nccc2c(C)c3c(cc12)c1cc(OC)ccc1n3C` [Compound 204, Ethyl-9-methoxy-5,6-dimethyl-6H-pyrido[4,3-b]carbazole-1-carboxylate]: 12.5 µM; for `COc1ccc2[nH]c3c(C)c4ccnc(C(=O)NCCN(C)C)c4cc3c2c1` [Compound 209]: 3.1 µM. Same read-out and setting: the value for `COc1ccc2[nH]c3c(C)c4ccnc(C(=O)NCCO)c4cc3c2c1` [Compound 207] was 6 µM; that for `COc1ccc2c(c1)c1cc3c(C(=O)N[C@H](C)CN(C)C)nccc3c(C)c1n2C` [Compound 212, (R)—N-(1-(dimethylamino)propan-2-yl)-9-methoxy-5,6-dimethyl-6H-pyrido[4,3-b]carbazole-1-carboxamide] was 3.1 µM; that for `COc1ccc2c(c1)c1cc3c(C(=O)NCCN(C)C)nccc3c(C)c1n2C` [Compound 211] was 3.1 µM. As to `CCCNC(=O)c1nccc2c(C)c3[nH]c4ccc(OC)cc4c3cc12` [Compound 206], the 50% inhibitory concentration (IC50) is > 12.5 µM. On the same count and under the same terms, the same measure for `COc1ccc2[nH]c3c(C)c4ccnc(C(=O)NCCCN(C)C)c4cc3c2c1` [Compound 210]: 10.3 µM; for `COCCNC(=O)c1nccc2c(C)c3[nH]c4ccc(OC)cc4c3cc12` [Compound 205]: 12.5 µM; for `CCOC(=O)C1=NCCc2c1cc1c([nH]c3ccc(OC)cc31)c2C` [Compound 203]: > 12.5 µM.

The assay is the same for the next values; noted with them: Homo sapiens, HEK-293T; Table G; HEK293T; read-out: RANT IC50.
Consider `Cc1c2ccncc2cc2c3cc(C(=O)NCCOC(C)(C)C)ccc3n(C)c12` [Compound 301, N-(2-(tert-butoxy)ethyl)-5,6-dimethyl-6H-pyrido[4,3-b]carbazole-9-carboxamide], for which the IC50 came to 13 µM.
